In the NIST ThermoML archive (doi:10.1021/je200327s):
Numbers after ± are expanded uncertainties.

Test: xn = mol fraction of the nth substance listed
Conditions: 101 kPa, Liquid, Vibrating tube method

c1ccc2c(c1)sc1ccccc12 [dibenzothiophene] + CCCCCC
298.2 K
Conditions | mass density [kg/m3]
x1 = 0.0097 | 661.714 ± 2.1
x1 = 0.0147 | 665.156 ± 2.1
x1 = 0.0174 | 667.026 ± 2.1

c1ccc2c(c1)sc1ccccc12 [dibenzothiophene] + C1CCCCC1
298.2 K
Conditions | mass density [kg/m3]
x1 = 0.0025 | 775.392 ± 0.27
x1 = 0.0045 | 776.667 ± 0.27
x1 = 0.0114 | 780.726 ± 0.27
x1 = 0.0224 | 787.439 ± 0.27

c1ccc2c(c1)sc1ccccc12 [dibenzothiophene] + CCCCCCCCCCC
mass density [kg/m3]
Conditions | x1 = 0.0035 | x1 = 0.0069 | x1 = 0.0087 | x1 = 0.0186 | x1 = 0.0263 | x1 = 0.0286 | x1 = 0.0342 | x1 = 0.0436
298.2 K | 738.065 ± 0.35 | 739.235 ± 0.35 | 739.863 ± 0.35 | 743.359 ± 0.35 | – | 746.909 ± 0.35 | 748.935 ± 0.35 | –
313.2 K | 726.939 ± 0.35 | 728.106 ± 0.35 | 728.741 ± 0.35 | 732.22 ± 0.35 | 735.021 ± 0.35 | 735.767 ± 0.35 | 737.778 ± 0.35 | 741.11 ± 0.36

c1ccc2c(c1)sc1ccccc12 [dibenzothiophene] + CC(C)CC(C)(C)C
mass density [kg/m3]
Conditions | x1 = 0.0025 | x1 = 0.003 | x1 = 0.005 | x1 = 0.0063 | x1 = 0.0127 | x1 = 0.0149
298.2 K | 689.019 ± 0.28 | – | 690.292 ± 0.28 | – | 694.21 ± 0.28 | 695.329 ± 0.28
313.2 K | 676.548 ± 0.29 | 676.845 ± 0.29 | 677.841 ± 0.29 | 678.505 ± 0.29 | – | 683.13 ± 0.28

c1ccc2c(c1)sc1ccccc12 [dibenzothiophene] + CCCCCCCCCCCC
mass density [kg/m3]
Conditions | 298.2 K | 313.2 K
x1 = 0.0037 | – | 735.448 ± 0.25
x1 = 0.0046 | – | 735.694 ± 0.24
x1 = 0.0074 | 747.569 ± 0.24 | 736.633 ± 0.24
x1 = 0.0094 | 748.147 ± 0.24 | –
x1 = 0.0098 | – | 737.333 ± 0.24
x1 = 0.0142 | – | 738.752 ± 0.24
x1 = 0.0187 | – | 740.177 ± 0.24
x1 = 0.0191 | 751.276 ± 0.24 | –
x1 = 0.024 | – | 741.874 ± 0.25
x1 = 0.0285 | 754.322 ± 0.24 | –
x1 = 0.0305 | – | 743.953 ± 0.25
x1 = 0.0325 | – | 744.662 ± 0.25
x1 = 0.0372 | – | 746.081 ± 0.25
x1 = 0.0378 | 757.354 ± 0.24 | –
x1 = 0.0651 | – | 755.317 ± 0.25

c1ccc2c(c1)sc1ccccc12 [dibenzothiophene] + CCCCCCCCC
mass density [kg/m3]
Conditions | x1 = 0.0032 | x1 = 0.0057 | x1 = 0.0072 | x1 = 0.0147 | x1 = 0.0216 | x1 = 0.0287 | x1 = 0.0343
298.2 K | 715.374 ± 0.35 | 716.447 ± 0.35 | 717.097 ± 0.35 | 720.427 ± 0.35 | 723.475 ± 0.35 | 726.668 ± 0.35 | 729.068 ± 0.36
313.2 K | 703.613 ± 0.35 | 704.689 ± 0.35 | 705.41 ± 0.35 | 708.85 ± 0.35 | 711.795 ± 0.36 | 715.175 ± 0.36 | 717.135 ± 0.36

c1ccc2c(c1)sc1ccccc12 [dibenzothiophene] + CCCCC
298.2 K
Conditions | mass density [kg/m3]
x1 = 0.0042 | 624.932 ± 0.3
x1 = 0.0077 | 627.957 ± 0.3
x1 = 0.0112 | 630.962 ± 0.3
x1 = 0.0158 | 634.865 ± 0.3

c1ccc2c(c1)sc1ccccc12 [dibenzothiophene] + CCCCCCC
298.2 K
Conditions | mass density [kg/m3]
x1 = 0.0056 | 683.108 ± 0.36
x1 = 0.0119 | 686.774 ± 0.36
x1 = 0.0176 | 690.099 ± 0.36
x1 = 0.0218 | 692.551 ± 0.36

c1ccc2c(c1)sc1ccccc12 [dibenzothiophene] + CCCCCCCC
mass density [kg/m3]
Conditions | x1 = 0.0026 | x1 = 0.0049 | x1 = 0.0063 | x1 = 0.0127 | x1 = 0.0187 | x1 = 0.0252
298.2 K | 699.866 ± 1.4 | 701.048 ± 1.4 | 701.696 ± 1.4 | 704.954 ± 1.4 | 707.967 ± 1.4 | 711.182 ± 1.4
313.2 K | 687.657 ± 1.3 | 688.882 ± 1.3 | 689.525 ± 1.3 | 692.813 ± 1.3 | 695.851 ± 1.3 | 699.1 ± 1.4
